From US10485902B2, “Antibiotic drug release sheath” (Thomas Jefferson University, priority 2015, dated 2019)
Like-named read-outs stand apart in the source and are kept apart here.

Legend:
[1] = system: osteoblastic (MC3T3-E1) and chondrocytic (N1511) cells; details: cited from earlier work
[2] = US-mediated methylene blue release from PLA-sealed multiport (1 mm) PEEK sheath; format: physicochemical
Description: Multiple 1 mm holes (left) and one 3 mm hole (right) sheaths were submerged in water and release of methylene blue (MeB) or MeB+VAN was measured spectrophotometrically.
During the first 15 min of immersion, 11 mg and 3 mg of drug were released (due to surface amounts in PLA) from the groups. […] With a 15 min insonation (5 MHz, 3 MPa), 15 mg was released within one hour and the remaining 24 mg of drug was released by 72 hrs^39. (4) Three PLA coatings for US rupture using highly porous PEEK.

[3] = US release of VAN from porous PLA-sealed PEEK block; format: physicochemical; details: 10 mg VAN loaded; 10 min US insonation (5 MHz, 4 MPa)
Description: During the first 15 min of immersion, 11 mg and 3 mg of drug were released (due to surface amounts in PLA) from the groups. […] […] (4) Three PLA coatings for US rupture using highly porous PEEK.

[4] = system: S. aureus; assay: Bacterial colonization of inoculated spinal sites in a cadaverous rabbit; details: sites inoculated with 10^4 CFU S. aureus; insonation 20 min, 5 MHz, 3 MPa pk-pk
Description: (§1) The first set of experiments uses rabbit carcasses to establish US parameters that reproducibly release the desired amounts of ABX within a mock spinal fusion site. Preliminary tests on such animals in which VAN-loaded (4 mg), PLA-sealed sheaths were placed in 4 spinal levels of a cadaverous rabbit. Site 1 and Site 3 were inoculated with 10^4 CFU S. aureus in 100 μL PBS, and Site 2 and 4 were encased in plastic to collect released VAN. Without any optimization of US parameters, ˜50% of the VAN was released by insonation (20 min, 5 MHz, 3 MPapk-pk) and caused ˜10× less bacterial colonization.

[5] = system: bacterial lawn; assay: Passive elution of VAN from allograft bone and bacterial killing (FIG. 6); details: initial loading 10 mg/ml VAN
Description: Antibacterial activity of bone allografts: comparison of a new vancomycin-tethered allograft with allograft loaded with adsorbed vancomycin. This is an example of the elution that can be achieved without enhancement by ultrasound.
(initial loading: 10 mg/ml VAN, FIG. 6). However, a preferred sheath is sealed so that it retains antibiotics without leakage for up to 7 days (to allow for triggered release at any time prior to patient discharge) and then releases >99% of the antibiotics within 24 hrs. of US insonation. Accordingly, release can be determined based on the specific needs of the patient. Therapeutic materials loaded into the sheath may be liquids, solids, gels, or combinations thereof. Release profile of these different materials may require different structures to allow for the appropriate release.

[6] = VAN release from PLA-sealed sheaths in spinal levels of a cadaverous rabbit; details: 4 mg VAN-loaded PLA-sealed sheaths; 20 min, 5 MHz, 3 MPa pk-pk; US parameters not optimized
Description: as §1

[7] = system: S. aureus; details: cited from earlier work
[8] = system: bacteria; details: US plus VAN; cited from earlier work

Compound: O=C(O)c1cn(C2CC2)c2cc(N3CCNCC3)c(F)cc2c1=O [CIP, ciprofloxacin]
- concentration at which toxicity / cell death initiates [1]: 150 to 200 µg/mL

Compound: CN(C)c1ccc2nc3ccc(=[N+](C)C)cc-3sc2c1 [MeB, methylene blue]
- increase in MeB release, US group ([2]; US insonated, over 8 days): 757%
- increase in MeB release, non-insonated controls ([2]; no US, at 2 days): 26%
- additional MeB release, non-insonated controls ([2]; no US, out to 6 days): no additional release

Compound: NC[C@H]1O[C@H](O[C@H]2[C@H](O)[C@@H](O[C@H]3O[C@H](CO)[C@@H](O)[C@H](N)[C@H]3O)[C@H](N)C[C@@H]2N)[C@H](N)C[C@@H]1O [TOB, tobramycin]
- concentration at which toxicity / cell death initiates [1]: ~500 µg/mL

Compound: CN[C@H](CC(C)C)C(=O)N[C@H]1C(=O)N[C@@H](CC(N)=O)C(=O)N[C@H]2C(=O)N[C@H]3C(=O)N[C@H](C(=O)N[C@H](C(=O)O)c4cc(O)cc(O)c4-c4cc3ccc4O)[C@H](O)c3ccc(c(Cl)c3)Oc3cc2cc(c3O[C@@H]2O[C@H](CO)[C@@H](O)[C@H](O)[C@H]2O[C@H]2C[C@](C)(N)[C@H](O)[C@H](C)O2)Oc2ccc(cc2Cl)[C@H]1O [VAN, vancomycin]
- released VAN after US insonation [3]: 7.5 mg
- less bacterial colonization [4]: ~10 ×
- concentration at which toxicity / cell death initiates ([1]; MC3T3-E1 and N1511 cells): above 1 mg/ml
- toxicity in words ([1]; MC3T3-E1 and N1511 cells): low toxicity
- bacterial killing ([5]; especially within the first 48 hr.): significant bacterial killing
- elution from allograft bone ([5]; no ultrasound): rapid passive elution
- VAN released by insonation [6]: ~50%
- bacterial levels on metal surface versus 0 and 4 ug/ml VAN ([7]; 100 ug/ml of VAN (FIG. 2C)): massive reduction in bacterial levels
- reduction of bacterial colonization ([7]; 1 hr., 100× MIC): many-fold
- further decrease of bacterial numbers by US in the presence of VAN [8]: 50-90%
